According to patent publication US6303577A, “Use of a peptide compound in the treatment of systemic lupus erythematosus” (Tecnogen S.C.p.A., priority 1998, dated 2001):

Columns and labels:
[1] = in vitro; type: in vitro ADME, mouse; settings: for remaining at 5 min / remaining at 20 min / remaining at 40 min / remaining at 1 h: mouse, serum
Description: The stability of the peptide compounds of formula (I) to proteolytic attack by proteases has been evaluated by High Performance Liquid Chromatography (HPLC).
Mouse sera were obtained by cutting a small section off tip of tail and collecting some blood drops. After collection, blood was incubated for 1 hour at 37° C. and then serum was removed from the clot by centrifugation at 1200 g for 20' at 4° C. Various amounts of peptide compounds of formula (I) were added to 50 μl of serum and the mixture was incubated at 37° C. for different periods of time. Afterwards, 2 μl of the reaction mixture were added to 50 μl of 0.1 M acetic acid in order to elute the peptide compound from serum immunoglobulins. Samples were then stored at -80° C. until use.
Analysis of samples was carried out on an Aquapore RP-8 column (30×2.1 mm I.D.), eluting the equilibrated column at a flow rate of 0.5 ml/min with a linear gradient of 0.1% trifluoracetic acid buffer containing increasing acetonitrile concentration from 5% to 60% in 35'. Elution was monitored by absorbance at 225 nm.

[2] = test system: Balb/c mice; settings: mouse, in vivo
Description: The ability of the peptide compounds of formula (I) to evoke an antibody response has been evaluated by immunizing two groups of four Balb/c mice with 100 μg of D-PAM or L-PAM respectively by i.p. injection. After the first immunization, the same immunogen was administered for two subsequent boosts, blood samples were collected from each animal for monitoring antibody titers by an ELISA assay as follow.
Polystyrene microtiter plates (Falcon Cat. No 3912) were coated with a 50 μg/ml D-PAM and L-PAM conjugated to BSA (100 μl/well) in 0.1 M sodium carbonate buffer (pH 8.5) and incubated over night at 4° C. After washing the microtiter plates ten times with a 50 mM phosphate, 150 mM NaCI pH 7.2 buffer (PBS), the wells were saturated with 200 μl of PBS containing bovine serum albumin (BSA, Sigma Cat. No A-9418) for 1 hour at 37° C., to block the uncoated plastic surface. Plates were then washed again with PBS containing 0.05% Tween 20 (PBS-T), and filled with samples (100 μl/well) previously diluted with PBS-T containing 1% BSA (PBS-T-B). […] The color was allowed to develop for 30' and absorbances were read at 405 nm with an ELISA plate reader (Labsystems Multiskan Bichromatic). […]

[3] = test system: MRL/Ipr mice; assay: Serum anti-DNA antibodies by ELISA in mouse model of Systemic Lupus Erythematosus; type: in vivo; settings: 1 mg i.p. twice a week from 7 weeks of age
Description: (§1) In vivo studies on the activity of the peptide compounds of formula (I) were carried out by using an experimental animal model of human Systemic Lupus Erythematosus. MRL/Ipr, NZB/NZW or BXSB denote mouse strains that spontaneously develop an autoimmune syndrome having notable similarities to human Systemic Lupus Erythematosus. The MRL-Ipr/Ipr strain is homozigotic for Ipr gene. The lpr mutation causes functional defects in the Fas Ag. Fas belongs to the TNF receptor family and mediates apoptosis (Watanabe-Fukunaga, R. et al., "Nature", 356, 314, 1992; Itoh, N., et al., "Cell", 66, 233, 1991; Murphy, E. D., "Immunological defects in Laboratory Animals", 2, 143, 1981; Steinberg, A. D., "Semin. Immunol.", 6, 55, 1994). Autoimmune disease in MRL/Ipr mice is characterized by autoantibody production, vasculitis, arthritis, and glomerulonephritis that is the major cause of death (Theofilopoulos, A. N., et al., "Adv. Immunol.", 37, 269, 1985; Cohen, P. L., et al., "Annu. Rev. Immunol.", 9, 243, 1991).
(§2) At 7 weeks of age, mice were treated twice a week with 1 mg of D-PAM, L-PAM or placebo […] administered intraperitoneally. The treatment was stopped at 30 weeks of age. Mice were observed daily for clinical signs of disease and for mortality and were bled every 2 weeks for determination of anti-DNA antibody production, while urine protein levels were determined on samples taken twice a week.
Standard ELISA assay to measure the serum levels of anti-DNA antibodies was performed as follow. Microtiter plates (Costar, Cat. No 3590) were coated with a 10 μg/ml DNA (Sigma Cat. No D-8899) solution (100 μl/well) in 0.01 M phosphate buffer (pH 8.0) and incubated over night at 4° C. After washing the microtiter plates ten times with a 50 mM phosphate, 150 mM NaCl pH 7.2 buffer (PBS) containing 0.05% Tween (PBS-T), the wells were saturated with 200 μl of PBS-T containing fetal calf serum (1%) heat-inactivated 1 hour at 56° C. (PBS-T-FCS), and incubated for 2 hours at room temperature, to block the uncoated plastic surface. Plates were then washed again with PBS-T, and filled with samples (100 μl/well) previously diluted with PBS-T-FCS. After incubation for 2 hours at room temperature and subsequent washing, wells were filled with 100 μl of horseradish peroxidase labeled goat anti-mouse polyvalent immunoglobulins (IgG, IgA, IgM) (Sigma, Cat. No A-0412) solution diluted 1000 fold with PBS-T-FCS. The plates were then left to stand for 1 hour at room temperature, washed ten times and then filled with 150 μl of ophenylenediamine dihydrochloride (Sigma Cat. No P-6912) chromogenic substrate solution freshly prepared according to protocols from the manufacturer. The color was allowed to develop for 30' and the adsorbance at 450 nm were determined with an ELISA plate reader (Labsystems Multiskan Bichromatic).

[4] = test system: MRL/Ipr mice; assay: Urine protein levels (dipstick) in mouse model of Systemic Lupus Erythematosus; type: in vivo; settings: for Mice with proteinuria level >1 g/L (%): 1 mg i.p. twice a week from 7 weeks of age
Description: as §1, §2
Urine protein levels were determined by colorimetric analysis using dipsticks (Combur 7, Boehringer Mannheim, n. cat. 185515) according to protocols from the manufacturer (Wang et al., "Proc. Natl. Acad. Sci. USA", 93, 8563-8568, 1996).

[5] = test system: MRL/Ipr mice; assay: Survival in mouse model of Systemic Lupus Erythematosus; type: in vivo; settings: 1 mg i.p. twice a week from 7 weeks of age
Description: as §1, §2
Coincident with ameliorating the clinical signs of severe immune complex nephritis, a dramatic prolongation of survival was observed.

[6] = test system: MRL/Ipr mice; assay: Histopathologic examination of renal tissue; type: in vivo, mouse; settings: hematoxylin and eosin, light microscope
Description: as §1
as §2, with “The treatment was stopped at 30 weeks of age.” left out, “week. […]” for “week.”

Compound	remaining at 5 min [1] [%]	remaining at 20 min [1] [%]	remaining at 40 min [1] [%]	remaining at 1 h [1] [%]	Antibody titer (A 405) [2] [A 405]	Ig Anti-DNA titer (O.D.) fold increase ([3]; time 8 weeks) [fold increase]	Ig Anti-DNA titer (O.D.) fold increase ([3]; time 10 weeks) [fold increase]	Ig Anti-DNA titer (O.D.) fold increase ([3]; time 14 weeks) [fold increase]	Ig Anti-DNA titer (O.D.) fold increase ([3]; time 16 weeks) [fold increase]	Ig Anti-DNA titer (O.D.) fold increase ([3]; time 18 weeks) [fold increase]	Onset of severe proteinuria versus untreated animals (in words) ([4]; 1 mg i.p. twice a week)	Mice with proteinuria level >1 g/L (%) ([4]; time 8 weeks)	Mice with proteinuria level >1 g/L (%) ([4]; time 13 weeks)	Mice with proteinuria level >1 g/L (%) ([4]; time 18 weeks)	Mice with proteinuria level >1 g/L (%) ([4]; time 23 weeks)	Mice with proteinuria level >1 g/L (%) ([4]; time 28 weeks)	Survival rate (%) ([5]; time 15 weeks)	Survival rate (%) ([5]; time 20 weeks)	Survival rate (%) ([5]; time 25 weeks)	Survival rate (%) ([5]; time 30 weeks)	further results
C[C@H](O)[C@@H](NC(=O)[C@H](N)CCCNC(=N)N)C(=O)N[C@H](Cc1ccc(O)cc1)C(=O)NCCCC[C@H](NC(=O)[C@@H](Cc1ccc(O)cc1)NC(=O)[C@H](NC(=O)[C@H](N)CCCNC(=N)N)[C@H](C)O)C(=O)NCCCC[C@H](NC(=O)[C@H](CCCCNC(=O)[C@@H](Cc1ccc(O)cc1)NC(=O)[C@H](NC(=O)[C@H](N)CCCNC(=N)N)[C@H](C)O)NC(=O)[C@@H](Cc1ccc(O)cc1)NC(=O)[C@H](NC(=O)[C@H](N)CCCNC(=N)N)[C@H](C)O)C(=O)NCC(=O)O [D-PAM, (H2 N-D-Arg-D-Thr-D-Tyr-CO)4 -(Lys)2 -Lys-Gly-OH]	83	73	68	63	0.663	1.8	2.5	3.5	3.5	4.3	marked delay in the onset of severe proteinuria	0	0	0	20	30	100	100	90	80	Stability to proteolytic attack (in words) [1]: more stable to proteolytic attack than L-PAM; Time until which treated mice did not develop proteinuria ([4]; 1 mg i.p. twice a week): 20 weeks; Glomerulonephropathic progression versus positive control group (in words) [6]: evident reduction in the glomerulonephropathic progression
C[C@@H](O)[C@H](NC(=O)[C@@H](N)CCCNC(=N)N)C(=O)N[C@@H](Cc1ccc(O)cc1)C(=O)NCCCC[C@H](NC(=O)[C@H](Cc1ccc(O)cc1)NC(=O)[C@@H](NC(=O)[C@@H](N)CCCNC(=N)N)[C@@H](C)O)C(=O)NCCCC[C@H](NC(=O)[C@H](CCCCNC(=O)[C@H](Cc1ccc(O)cc1)NC(=O)[C@@H](NC(=O)[C@@H](N)CCCNC(=N)N)[C@@H](C)O)NC(=O)[C@H](Cc1ccc(O)cc1)NC(=O)[C@@H](NC(=O)[C@@H](N)CCCNC(=N)N)[C@@H](C)O)C(=O)NCC(=O)O [L-PAM, (H2 N-L-Arg-L-Thr-L-Tyr-CO)4 -(Lys)2 -Lys-Gly-OH]	57	31	19	12	0.462	1.8	2.5	3.6	3.6	4.5	marked delay in the onset of severe proteinuria	0	0	10	50	60	100	90	50	40	Glomerulonephropathic progression versus positive control group (in words) [6]: evident reduction in the glomerulonephropathic progression
